Measured values as given in patent publication US20080279907A1, “Antimicrobial medical devices and methods for making and using same” (Ash Access Technology, Inc., priority 2007, published 2008).
Where “and” joins values, the source holds several entries; their conditions need not be identical. Equal values may be shown once.

Key:
Format in all cases: physicochemical
[1] = Desorption of methylene blue from impregnated catheter pieces in 0.9% saline (HPLC)
Procedure: In another form of the present application, one inch polycarbonate catheter pieces including a surface area of about 4.64 cm^2 were impregnated with methylene blue. A solution of 0.24 M sodium citrate buffer pH 4.5 was prepared with 100 mg % methylene blue activated by 2% L-ascorbic acid immediately beforehand. Catheter pieces were placed in flasks containing the solution and the flasks were placed on a shaker at 220 rpm and 27° C. for 3 hours.
Desorption analysis of the methylene blue impregnated catheter pieces was performed in a 0.9% solution of saline. The total amount of methylene blue released from the catheter pieces was calculated using HPLC analysis performed with a Waters Alliance 2690 including a 996 Photodiode Array Detector according to conditions in Example 4. The results of the HPLC analysis corresponding to the desorption of methylene blue from the methylene blue impregnated polymeric material are set forth in the graph of FIG. 10.
One inch polycarbonate catheter pieces including a surface area of about 4.64 cm^2 were impregnated with methyl paraben and propyl paraben. A solution of 100% 1,2-propanediol was prepared with 9% methyl paraben and 2% propyl paraben. Pairs of the one inch catheter pieces were placed into three 25 ml flasks including 10 ml of parabens solution. The flasks were placed on a shaker at 220 rpm and 27° C. for two, four, or nine hours. At the end of each time period, the catheter pieces were removed, rinsed with distilled water, and dried.
The catheter pieces were then impregnated with methylene blue. A solution of 0.24 M sodium citrate buffer with a pH of 4.5 was prepared with 100 mg % methylene blue activated by 2% L-ascorbic acid immediately beforehand. Catheter pieces were placed in flasks containing the solution and the flasks were placed on a shaker at 220 rpm and 27° C. for 3 hours. Desorption analysis of the parabens and methylene blue impregnated catheter pieces was performed in a 0.9% solution of saline according to the method described earlier.

[2] = Perfusion of parabens and methylene blue through polycarbonate membrane in perfusion chamber (HPLC of lower chamber); conditions: for perfusion of methylene blue through membrane without activation: only 1,2-propanediol solution, absence of Citrate and activation by AA, after 4.5 days (Treatments 1 and 2)
Procedure: An experiment was performed to determine a method for perfusing methylene blue, methyl paraben, and propyl paraben through a polycarbonate membrane with causing only minimal changes to the strength and elasticity of the membrane. In FIG. 12, there is illustrated a perfusion chamber system 50 used during the experiment. System 50 includes an upper chamber 51 and a lower chamber 52 separated by a polycarbonate membrane 53 having a thickness of 0.60 mm. The upper and lower chambers 51, 52 are generally structured to hold 10.5 cm^3 or 10.5 ml of fluid. The upper chamber 51 was connected to a peristaltic pump (not shown) and the lower chamber 52 was filled with distilled water. First and second solutions, respectively including the parabens and the methylene blue, were prepared in accordance with the method set forth in EXAMPLE 6 above. As best seen in Tables 6 and 7 below, the solutions were connected to the pump and passed through the first chamber 51 at a constant rate at 37° C. over various lengths of time.
Table 6 includes data obtained from HPLC analysis comparing the methyl paraben, propyl paraben, and methylene blue concentrations in the lower chamber 52. The parameters for the methyl and propyl paraben and methylene blue treatments are indicated in the left hand columns.

[3] = Total methylene blue loaded onto and released from polycarbonate discs and catheters, desorbed in MeOH (0.1% TFA), UV 662 nm
Procedure: An experiment was performed in order to determine the total amount of methylene blue that was loaded onto a polycarbonate disc in comparison to a polycarbonate catheter. The discs were 1.27 cm or 0.5 inches in diameter and included a surface area of 2.53 cm^2 and a thickness of 0.60 mm. The catheter pieces were 1″ long and included a surface area of 4.64 cm^2 and a thickness of 0.51 mm. A 160 ml solution of 0.24 M sodium citrate was prepared into which 0.1% or […] of methylene blue was added. Then, 2%, or 3.2 g of ascorbic acid, was added to the solution and mixed for 1-2 minutes and 10 ml of the solution was placed into 25 ml flasks. The discs and catheter pieces were rinsed and placed into the 25 ml flasks of solution and placed on a shaker at 220 rpm at 37° C. for three hours. The catheter pieces and discs were removed, rinsed with distilled water, and dried. The catheter pieces and discs were desorbed in 20 ml of MeOH (w/0.1% TFA) and placed on the shaker until the membranes appeared whitish in color. Appropriate dilutions were made and the UV absorbance was measured at 662 nm. The methylene blue concentration was calculated based on a standard curve generated in a similar manner. The results are set forth below in Table 4 and 5.

[4] = Leaching of methylene blue from treated catheter into normal saline replaced monthly; conditions: catheter treated with only methylene blue
From the text: When the saline is replaced with fresh saline, exactly the same intense blue color developed in the fresh saline solution during the second month. This process of replacing the saline solution can be continued, that is, replacing the saline solution with fresh solution monthly, for at least nine months. The color resulting during the sixth month in the fresh saline solution is a light blue. If the process is continued for an additional 3 months or up to a total of 9 months, the resulting fresh saline solution is light blue in color, but the release of the dye continues.

[5] = No Parabens, MB treatment 3 hrs 0.24 M Citrate buffer, 4.5 pH
[6] = paraben treatment 2 hrs- 100% PG, 9% MP, 2% PP, MB treatment 3 hrs
[7] = paraben treatment 4 hrs- 100% PG, 9% MP, 2% PP, MB treatment 3 hrs
[8] = paraben treatment 9 hrs- 100% PG, 9% MP, 2% PP, MB treatment 3 hrs
[9] = flat polycarbonate disc (discs 1-4), NO Parabens, MB treatment 3 hrs 0.24M Citrate Buffer, 4.5 pH, 100 mg % MB, 2% AA

period of significant release of methylene blue ([1]; catheters preincubated with parabens, 0.9% saline): 10 days | methylene blue release during the last 20 days of the experiment ([1]; catheters treated only with methylene blue, 0.9% saline (FIG. 10)): negligible release | time to perfuse through the membrane ([2]; activated MB solution (citrate, AA), 0.60 mm polycarbonate membrane): ~10 days | concentration of methylene blue in lower chamber, in words ([2]; after 10 days of flow by activated solution): not significant | Total mg MB in 10.5 mL lower chamber ([2]; lower chamber, parabens ~9 hrs at 37 C., then activated MB sol'n ~10 days): 0.0105 mg | MB conc ([2]; lower chamber, parabens ~9 hrs at 37 C., then activated MB sol'n ~10 days, changed every 1 day): 0.001 mg/mL | perfusion of methylene blue through membrane without activation ([2]; listed as Methylene blue): would not perfuse | perfusion of methylene blue through membrane without activation ([2]; listed as methylene blue): minimal | factor by which flat discs exceed catheters in total sorption and desorption of methylene blue per cm^2 ([3]; Tables 4 and 5, no parabens): ~6.8 | Average ug/cm^2 MB released ([3]; average of flat discs 1-4, NO Parabens, MB treatment 3 hrs): 1942.8 ug/cm^2 | % MB released from catheter in saline desorption/total released in MeOH (0.1% TFA) [3, 5]: 58.8% | mg released based on 1″ of catheter [3, 5]: 1.32 mg | mg released per cm^2 of catheter [3, 5]: 0.284 mg per cm^2 | ug released per cm^2 of catheter [3, 5]: 284.5 ug per cm^2 | % MB released from catheter in saline desorption/total released in MeOH (0.1% TFA) [3, 6]: 73.2% | mg released based on 1″ of catheter [3, 6]: 1.65 mg | mg released per cm^2 of catheter [3, 6]: 0.356 mg per cm^2 | ug released per cm^2 of catheter [3, 6]: 356.3 ug per cm^2 | % MB released from catheter in saline desorption/total released in MeOH (0.1% TFA) [3, 7]: 65.5% | mg released based on 1″ of catheter [3, 7]: 1.71 mg | mg released per cm^2 of catheter [3, 7]: 0.368 mg per cm^2 | ug released per cm^2 of catheter [3, 7]: 368.5 ug per cm^2 | % MB released from catheter in saline desorption/total released in MeOH (0.1% TFA) [3, 8]: 76.4% | mg released based on 1″ of catheter [3, 8]: 1.78 mg | mg released per cm^2 of catheter [3, 8]: 0.384 mg per cm^2 | ug released per cm^2 of catheter [3, 8]: 383.6 ug per cm^2 | duration of release of the dye from treated catheter [4]: ≥ 9 months
SMILES: CN(C)c1ccc2nc3ccc(=[N+](C)C)cc-3sc2c1 [MB, methylene blue]
methylene blue release at the conclusion of the 81st day ([1]; catheters pretreated with parabens, 0.9% saline (FIG. 11)): a small amount of methylene blue still being released | Amt MB (mg) released per square cm (mg/2.53 cm^2) on disc [3, 9]: 1.95 mg per square cm and 1.92 mg per square cm and 1.93 mg per square cm and 1.96 mg per square cm | Average amount (mg) released per disc [3, 9]: 4.94 mg and 4.87 mg and 4.88 mg and 4.97 mg | ug/cm^2 MB released, flat disc [3, 9]: 1954.1 ug/cm^2 and 1923.6 ug/cm^2 and 1929.0 ug/cm^2 and 1964.3 ug/cm^2
